pIC50: −log10 of the molar value. Where two headings read alike, the source gives them in different places.
How the values were obtained:
Ea.Hy926 cells [1] = test: Wound healing (scratch) assay; assay type: cell-based, human; conditions: 12 h
Procedure: Confluent Ea.Hy926 monolayers were formed by seeding the cells for 24 h in a 12-well plate incubated in a starvation medium. After the confluency was reached, the medium was removed and a scratch was performed using the sterile tip of a 100 µL pipette. Detached cells were removed by washing the cellular monolayers twice with DPBS, and then the cells were photographed individually (phase-contrast microscopy, 10x objective) to assess the wound area at the moment of exposure (T0). […] For each experiment, an image was captured 12 h post-exposure (T12), and the rate of Ea.Hy926 cell migration was quantitatively evaluated by the wound healing percentage (%) calculated by the formula (AT0 − AT12)/ AT0 × 100 [35]. The scratch areas at T0 (AT0) and T12 (AT12), respectively, were determined with the IKOSA Prisma Application Wound Healing (Scratch) assay (v2.2.0) and are expressed as square pixels (Px^2).

HaCaT cells = test: Alamar Blue cytotoxicity on HaCaT cells; assay type: cell-based; conditions: Homo sapiens, read-out: IC50 HaCaT
Procedure: (§1) To the growth media of all the cell lines, 1% penicillin/streptomycin and 10% FBS were added. The cell lines were cultured in standardized conditions (37 °C and 5% CO2) with the initiation of the experimental protocol once an 80–90% confluency was reached.
(§2) The spectrophotometric quantification (λemission = 590/35, λexcitation = 530/25) of resorufin by the metabolic-dependent conversion of the resazurin by the viable cells was achieved using the microplate reader Synergy 2 Multi-Mode. The cells were seeded in 100 µL of growth media in 96-well plates at the specified density (Ea.Hy296—5 × 10^3 cells/well, HaCaT—8 × 10^3 cells /well, and A375—7 × 10^3 cells /well) and were left overnight to attach. […] After 48 h of cultivation, the growth media was removed, and the AB assay was performed for the quantification of the viable cells post-exposure to the selected compounds. Three biological replicates were performed for each biological experiment with six technical replicates, using 0.2% DMSO as the negative control (NC) for data normalization (100% viability). The IC50 values were calculated based on the dose–cellular viability curve ratio obtained by fitting the experimental data with a 4-parameter logistic curve (SigmaPlot 11).

A375 cells = test: Alamar Blue cytotoxicity on A375 cells; assay type: cell-based, human; conditions: for pIC50: Homo sapiens, read-out: IC50 A375; for Selectivity Index SIb: SIb = IC50 HaCaT/IC50 A375
Procedure: as §1, §2

Ea.Hy926 cells [2] = test: Alamar Blue cytotoxicity on Ea.Hy926 cells; conditions: for pIC50: read-out: IC50 EA.hy926, 48 h exposure, Alamar Blue; for Selectivity Index SIa: SIa = IC50 HaCaT/IC50 EA.hy296
Procedure: as §1, §2

[3] = test system: chick chorioallantoic egg membrane (CAM); test: Chorioallantoic egg membrane (CAM) assay; assay type: in vivo; conditions: 1 µM, 5 µM and 10 µM, 5-day protocol
Procedure: Eggs without deformities and weighing between 50 and 60 g were selected. The eggs were cleaned with 70% alcohol and incubated for 14 days in standard conditions (37.5 °C, humidity 65%). On the 4th day of incubation, approximately 10–12 mL of egg white (albumen) was extracted from the top of each egg using a medical syringe with a needle for the detachment of the egg membrane. On the 5th day, the eggs were checked for fertility using a light source, and a window large enough to reveal the vascular plexus was cut out with forceps. The window was then sealed with medical tape to maintain favorable conditions for embryonic development. Optimal ventilation conditions, temperature, and humidity were ensured throughout incubation to facilitate proper embryo growth. […] For this purpose, a transparent silicone ring was applied to the vascular plexus of the CAM using a tweezer. In this ring, 10 μL of each test sample was applied for 4 days. […] Pictures were taken daily (days 1–5 of exposure) to observe the effects of the samples on the angiogenic process, and the changes observed were noted. For microscopic analysis, a Zeiss SteREO Discovery.V8 stereomicroscope was used, coupled with a Zeiss Axiocam 105 digital camera, both connected to a computer. The images presented in this study were captured using the ZEN core 3.8 software. The scale bar from the images represents a measurement of 500 μm.

Human VEGFR-2 (KDR) = molecular target: T1, Human VEGFR-2 (KDR) (Homo sapiens, UniProt P35968); test: In vitro VEGFR2 kinase inhibition assay; assay type: biochemical; conditions: for pIC50: isolated kinase domain, 45 min at 30 °C; for inhibition at 0.5 µM: read-out: VEGFR2 Kinase Inhibitory Activity % of Inhibition (500 nM)
T1 construct: purchased BPS Bioscience 40325
T1 sequence (P35968 805-1356): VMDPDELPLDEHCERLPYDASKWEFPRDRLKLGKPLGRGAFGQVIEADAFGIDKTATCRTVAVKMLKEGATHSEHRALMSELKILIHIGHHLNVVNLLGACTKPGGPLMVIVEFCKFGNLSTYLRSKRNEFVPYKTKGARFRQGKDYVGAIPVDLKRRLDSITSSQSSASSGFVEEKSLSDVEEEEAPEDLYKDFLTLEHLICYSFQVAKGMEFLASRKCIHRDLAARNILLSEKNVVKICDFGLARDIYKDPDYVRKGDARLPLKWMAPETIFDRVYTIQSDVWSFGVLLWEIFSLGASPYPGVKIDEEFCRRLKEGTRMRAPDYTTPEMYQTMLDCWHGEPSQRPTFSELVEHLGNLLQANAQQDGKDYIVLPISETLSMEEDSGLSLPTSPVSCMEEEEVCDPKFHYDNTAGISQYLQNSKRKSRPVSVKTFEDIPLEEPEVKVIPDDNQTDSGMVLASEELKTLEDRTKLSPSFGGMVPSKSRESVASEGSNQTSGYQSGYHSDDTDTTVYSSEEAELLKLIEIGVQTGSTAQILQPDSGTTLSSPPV
Procedure: The experimental assay was conducted according to the manufacturer’s instructions. […] The incubation time was set for 45 min at 30 °C. Inhibitory potential towards the kinase domain was quantified by luminescence detection, after the addition of the Kinase-Glo™ MAX reagent (Promega, Madison, WI, USA, catalog #v6071). After further incubation for an additional 15 min, the luminescence was recorded using a microplate reader Synergy 2 Multi-Mode.

[4] = A-375, 48 h exposure, Alamar Blue

Structure (SMILES)	inhibition of the mobility of Ea.Hy296 cells (Ea.Hy926 cells [1]; 5 µM)	pIC50 (HaCaT cells; 48 h)	pIC50 (A375 cells; A-375, 48 h)	pIC50 (Ea.Hy926 cells [2])	anti-angiogenic effect in CAM [3]	pIC50 (HaCaT cells; 48 h exposure, Alamar Blue)	pIC50 (A375 cells; [4])	Selectivity Index SIa (Ea.Hy926 cells [2])	pIC50 (Human VEGFR-2 (KDR))	inhibition at 0.5 µM (Human VEGFR-2 (KDR)) [%]	Selectivity Index SIb (A375 cells)	motility inhibition potential (Ea.Hy926 cells [1]; 1.25-5 µM, versus 0.2% DMSO)	cytotoxic potential relative to sorafenib (Ea.Hy926 cells [2]; Ea.Hy296 cells, 48 h) [fold]	reduction in the wound closure area (Ea.Hy926 cells [1]; highest evaluated concentration (TSC9 12.5 µM, TSC10 7.5 µM)) [%]
CNC(=O)c1cc(Oc2ccc(NC(=O)Nc3ccc(Cl)c(C(F)(F)F)c3)cc2)ccn1 [Sorafenib, sorafenib, reference compound]	almost total inhibition	4.89	5.28	4.99	potent anti-angiogenic effect was observed across all three tested concentrations	–	–	–	–	–	–	–	–	–
C=CCNC(=S)NN=Cc1ccc(Oc2ncnc3cc(OC)c(OC)cc23)cc1 [TSC1, N-allyl-2-(4-((6,7-dimethoxyquinazolin-4-yl)oxy)benzylidene)hydrazine-1-carbothioamide]	–	–	–	–	–	~4.00	< 4.00	2.00	6.41	52.7	–	–	–	–
COc1cc2ncnc(Oc3ccc(/C=N/NC(=S)Nc4cccc(C(F)(F)F)c4)cc3)c2cc1OC [TSC2, N-(3-(trifluoromethyl)-phenyl)-2-(4-((6,7-dimethoxyquinazolin-4-yl)oxy)benzylidene)-hyrazine-1-carbothioamide]	–	–	–	< 4.00	–	< 4.00	< 4.00	–	6.47	59.5	–	–	–	–
COc1cc2ncnc(Oc3ccc(C=NNC(=S)Nc4ccc(F)cc4)cc3)c2cc1OC [TSC3, N-(4-fluorophenyl)-2-(4-((6,7-dimethoxyquinazolin-4-yl)oxy)benzylidene)hydrazine-1-carbothioamide]	–	–	–	4.58	–	4.54	< 4.00	1.08	6.62	62.1	–	–	–	–
COc1cc2ncnc(Oc3ccc(C=NNC(=S)Nc4ccc(Cl)cc4)cc3)c2cc1OC [TSC4, N-(4-chlorophenyl)-2-(4-((6,7-dimethoxyquinazolin-4-yl)oxy)benzylidene)hydrazine-1-carbothioamide]	–	–	–	4.84	–	4.80	4.83	1.10	–	40.5	1.08	–	–	–
COc1cc2ncnc(Oc3ccc(C=NNC(=S)Nc4ccccc4)cc3)c2cc1OC [TSC5, N-phenyl-2-(4-((6,7-dimethoxyquinazolin-4-yl)oxy)benzylidene)hydrazine-1-carbothioamide]	–	–	–	5.13	pronounced decrease in CAM vascularization	4.78	4.76	2.20	6.42	71	0.95	11.19–12.82%	1.35	–
COc1cc2ncnc(Oc3ccc(C=NNC(=S)Nc4ccc(Cl)c(C(F)(F)F)c4)cc3)c2cc1OC [TSC6, N-(4-chloro-3-(trifluoromethyl)phenyl)-2-(4-((6,7-dimethoxyquinazolin-4-yl)oxy)benzylidene)hydrazine-1-carbothioamide]	–	–	–	4.78	–	4.64	4.21	1.40	–	0	0.38	–	–	–
COc1cc2ncnc(Oc3ccc(C=NNC(=S)Nc4ccc(F)c(F)c4)cc3)c2cc1OC [TSC7, N-(3,4-difluorophenyl)-2-(4-((6,7-dimethoxyquinazolin-4-yl)oxy)benzylidene)hydrazine-1-carbothioamide]	–	–	–	4.36	–	4.27	< 4.00	1.25	–	21.1	–	–	–	–
COc1cccc(NC(=S)NN=Cc2ccc(Oc3ncnc4cc(OC)c(OC)cc34)cc2)c1 [TSC8, N-(3-methoxyphenyl)-2-(4-((6,7-dimethoxyquinazolin-4-yl)oxy)benzylidene)hydrazine-1-carbothioamide]	–	–	–	< 4.00	–	< 4.00	< 4.00	–	–	0	–	–	–	–
COc1cc2ncnc(Oc3ccc(C=NNC(=S)NC(C)C)cc3)c2cc1OC [TSC9, N-isopropyl-2-(4-((6,7-dimethoxyquinazolin-4-yl)oxy)benzylidene)hydrazine-1-carbothioamide]	–	–	–	4.90	anti-angiogenic properties were also demonstrated across all three tested concentrations	4.06	< 4.00	6.90	6.42	70.5	–	–	–	25.63
COc1cc2ncnc(Oc3ccc(/C=N/NC(=S)Nc4cccc(Cl)c4Cl)cc3)c2cc1OC [TSC10, (E)-N-(2,3-dichlorophenyl)-2-(4-((6,7-dimethoxyquinazolin-4-yl)oxy)benzylidene)hydrazine-1-carbothioamide]	–	–	–	4.89	potent anti-angiogenic properties were observed	4.28	4.54	4.09	6.92	89.1	1.83	–	–	–
